What was measured:
[1] = test system: RPMI 8226 cells; test: Cytotoxicity measurement (WST-1), RPMI 8226; assay type: cell-based, human; conditions: Homo sapiens; RPMI 8226, 48 hours, WST-1, n = 3; read-out: Cytotoxicity EC50 (cell viability)
Protocol: Cellular assays were performed on human multiple myeloma RPMI 8226 cells (Figure 4). First, relative inhibition of proteasome subunits β5 and β2 for all analogues and the natural product was measured at 30 nM compound concentration. Following incubation of the compounds in cell culture for 6 h, cells were lysed, and fluorogenic subunit-specific peptide substrates Suc-LLVY-AMC (β5) or Ac-RLR-AMC (β2) were incubated with the lysates; fluorescence readings provided relative proteasome activity levels in comparison with DMSO (Figure 4A). Next, cytotoxicity screening was performed at 30 and 100 nM concentrations for sufficient coverage of dynamic range (Figure 4B). […] Therefore, the improved cytotoxicity of phenyl cepafungin 50 likely results from a more pronounced loss of β5 function in RPMI 8226 cells. This drastic increase in proteasome inhibition may be due to π-stacking of the lipid tail phenyl ring with the β6 subunit residues Tyr106 and/or Tyr5. The β2 subunit-bound natural product has residues Tyr102 and Phe103 on the adjacent β3 subunit oriented further away from the terminal lipid methyl groups, and presumably would not facilitate π-stacking to the extent possible at the adjacent β6 subunit (see Figure 3 and Figure S4). […] These combined modifications were made in hopes that the effects of both substitutions would be additive. […] The presence of a Thr residue next to the cepafungin macrocycle appears to be favored over the ethyl side chain of desoxy-Thr analogue 44 as indicated by cytotoxicity and hydrogen-bonding seen in the cepafungin-bound crystal structure (Figures 3 and 4B).
AMC (β5) or Ac-RLR-AMC (β2). […]
Cytotoxicity Measurements
in DMSO) or DMSO and cultured for 48 hours. Toxicity was determined using the WST-1 assay
(Roche) according to the protocol of the manufacturer. (n = 3)
Figure S1. […]

[2] = test system: RPMI 8226 cells; conditions: ∼3700 proteins quantified, 19 in common; cited from earlier work
[3] = test system: 20S proteasome subunits; test: Competitive in situ LC-MS/MS pull-down with alkyne probe S10 and 1 (Figure S1, Table S3); assay type: cell-based, human; conditions: 100 nM 1 versus 10 μM S10, RPMI 8226; targets: 20S proteasome subunits β5, β2i, α5, β1, β2
Protocol: To determine the targets of cepafungin I in human MM cells through chemoproteomics, a clickable analogue (S10) was designed with alkyne functionality distal to the reactive macrocycle (i.e., at the end of the fatty acid chain). The synthesis of S10 proceeded in a similar fashion as in Scheme 2B except with the tail fragment built from initial alkyne substitution of 6-bromo-1-hexanol. […] To identify these targets, a competitive in situ LC-MS/MS-based pull-down experiment was performed using alkyne probe S10 and 1. Following live cell treatment with just the probe or the probe together with the natural product, alkyne conjugation to biotin-azide and pull-down with streptavidin beads, the probe analogue enriched 764 proteins from RPMI 8226. […] These targets were identified as the 20S proteasome subunits β5, β2i, α5, β1, and β2, highlighting cepafungin’s exceptional selectivity for the proteasome in MM cells (Figure S1 and Table S3). […] The “i” suffix here denotes subunits of the immunoproteasome, which is produced by most cells exposed to oxidative stress or proinflammatory cytokines and also by immune cells at especially high baseline levels.[37] […]
fluorescence was read at A360ex/A460em. […]
in DMSO) or DMSO and cultured for 48 hours. Toxicity was determined using the WST-1 assay (Roche) according to the protocol of the manufacturer. […]

[4] = test system: β5-subunit; conditions: purified yeast proteasome; cited from earlier work
[5] = test system: proteasome subunits β2/2i, β5/5i, β1i, β1; conditions: in-gel labeling, cited from earlier work

CC(C)CCCCCC=CC=CC(=O)NC(C(=O)NC1CC(O)CCNC(=O)C=CC(C)NC1=O)C(C)O (stereo not drawn) [compound 1, cepafungin I]
EC50 [1]: 14 nM | number of proteins upregulated compared to DMSO control [2]: 88 proteins | number of enriched proteins competed >50% [3]: 5 proteins | fold improvement of β5-subunit inhibition compared to glidobactin A (2) [4]: ca. 5 fold | engagement of β1 ([5]; RPMI 8226, even at high concentrations): very little engagement | competition for subunits β2/2i, β5/5i and β1i ([5]; RPMI 8226): low-nanomolar concentrations

Reference: PMC9951290, “Comprehensive Structure–Activity Relationship Studies of Cepafungin Enabled by Biocatalytic C–H Oxidations” (ACS Central Science, 2023)
